{
  "source": "paper PMC6381106",
  "about": "(Scientific Reports, 2019)",
  "key": {"[1]": {"tested_on": "TNF-α mRNA expression in HMEC-1 cells", "test": "qPCR of cytokine-induced TNF-α mRNA in HMEC-1", "assay_type": "cell-based, human", "settings": "qPCR relative to GAPDH", "method": "(§1) Human micro-vascular endothelial cells-1 (HMEC-1, from American Type Culture Collection Manassas, USA) was cultured in MCDB 131 medium (Sigma, USA) with 15% fetal bovine serum (FBS; Sigma, USA). The medium was supplemented with 1% L-glutamine, 500 µg/ml streptomycin (Biowest, USA), 500 units/ml penicillin (Biowest, USA), 1 μg/ml hydrocortisone (Sigma, USA) and 10 ng/ml Epidermal Growth Factor (ProSpec, USA). The human acute monocytic leukemia cells (THP-1 cells) obtained from the Bioresource Collection and Research Center (Hsinchu, Taiwan) were cultivated in the RPMI-1640 medium (Invitrogen, USA) with 10% FBS. THP-1 were differentiated to macrophage by […] Phorbol 12-myristate 13-acetate (PMA; Sigma, USA) for 24 hours before peptides treatment.\n(§2) Cells were grown to confluence in 6-cm^2 culture plates. Peptides were incubated with TNF-α (20 ng/ml) for 1 h and then treated the cells for 4 h. […] An aliquot (5 µg) of purified RNA was reverse transcribed into first-strand complementary DNA (cDNA) with a 2720 Thermal Cycler (Applied Biosystems, Grand Island, NY, USA), 200 U/μl M-MLV reverse-transcriptase (Invitrogen) and […] oligo(dT)-adapter primers (Invitrogen) in a 20 μl reaction mixture. […] Quantitation of gene expression was conducted relative to GAPDH expression levels."}, "[2]": {"tested_on": "TNF-α mRNA expression in THP-1 cells", "test": "qPCR of cytokine-induced TNF-α mRNA in THP-1", "assay_type": "cell-based, human", "settings": "qPCR relative to GAPDH; TNF-α blocking antibody 1 μg/ml, peptide 500 nM; three independent experiments (Figure S6A)", "method": "as §1, §2"}, "[3]": {"tested_on": "TNF-α secretion in THP-1 cells", "test": "ELISA of IL-1β-induced TNF-α secretion in THP-1", "assay_type": "cell-based, human", "settings": "20 ng/ml IL-1β, pretreatment with peptide, relative to cell lysate concentration, three independent experiments (Figure S7A)", "excerpt": "In addition, the decline in cytokine–receptor interactions might suppress cytokine mRNA expression and cytokine production in endothelial cells and monocytes. Treatment with KCF18 suppressed TNF-α mRNA expression following cytokines TNF-α, IL-1β and IL-6 stimulation (Fig. 6). To assess the efficacy of KCF18, we performed the RT-qPCR in THP-1 and HMEC-1 cells and ELISA assay for detecting TNF-α secretion including a TNF-α blocking antibody (R&D systems, USA)[57]–[59] as an additional condition in their experiments. […] We further analyze whether the KCF18 could suppress IL-1β induced TNF-α or TNF-α induced IL-1β expressions by ELISA assay (Supporting Figure S7). […] Since TNF-α blocking antibody captures the TNF-α in the conditioned medium, it may interfere the detection of TNF-α by ELISA (Supporting Figure S7). In summary, indeed, KCF18 expresses the ability to reduce cytokines induced TNF-α mRNA and protein expression. […] We also assessed the ability of KCF18 to inhibit TNF-α-mediated p65 nuclear translocation and endothelial ICAM-1 expression (Supporting Figure S8). […]\nFigure S7: Peptide KCF18 and TNF-a antagonist antibody affect the protein expression of cytokine s-induced TNF-α an d I L-1b in TH P-1 cells. TNF-α and IL-1b secretion levels induced by (A) IL-1b and (B) TNF-α in THP-1 were determined using ELISA assays. […]"}, "[4]": {"tested_on": "white blood cell infiltration in the peritoneal cavity, BABL/c mice", "test": "Thioglycollate-induced acute peritonitis model", "assay_type": "in vivo, mouse", "settings": "counts at 24 h", "method": "The animal experiment was used 8- to 10-week-old male BABL/c mice to be the animal model. These mice were purchased from the National Laboratory Animal Breeding and Research Center, Taipei. The mice were housed in a temperature-controlled, light-cycled facility. Peritonitis was induced by an intraperitoneal injection of 4% (w/v) thioglycollate in 1 ml of sterile saline (Sigma–Aldrich, USA). Treatment with saline or peptides (5 mg/kg) was performed 4 h after the administration of thioglycollate by intravenous injection. At 24 h after thioglycollate injection, mice were killed by exposure to CO2, and 5 ml of HBSS was injected into the peritoneal cavity. Cells were obtained by aspirating peritoneal lavage. Differential cell counts were determined using a Hematology Analyzer (KX-21N; Sysmex, USA)."}, "[5]": {"tested_on": "TNF-α-induced adhesion of THP-1 to HMEC-1 cells", "test": "Monocyte binding assay, TNF-α-induced THP-1 adhesion to HMEC-1", "assay_type": "cell-based, human", "settings": "various concentrations, 1 h pretreatment, then 20 ng/ml TNF-α 18 h; three independent experiments (Fig. 4D, Figure S4)", "method": "as §1\n(§3) To perform the test of monocyte adherence to endothelial cells monolayers, the HMEC-1 cell monolayers were cultivated on 24-well plates under serum-starvation condition prior to the monocyte binding assay. The peptides were added to the HMEC-1 cells for one hour prior to the activation by 20 ng/ml TNF-α (Sigma, USA), IL-1β (GOLDBIO, USA) and IL-6 (GOLDBIO, USA) for 18 hours. […] The adhered monocytes were detected and photographed (five images per well) by fluorescent microscopy and the amount of stuck THP-1 cells were counted by the software AlphaImager 2200 (Alpha Innotech, USA)."}, "[6]": {"tested_on": "IL-1β-induced adhesion of THP-1 to HMEC-1 cells", "test": "Monocyte binding assay, IL-1β-induced THP-1 adhesion to HMEC-1", "assay_type": "cell-based, human", "settings": "various concentrations, 1 h pretreatment, then 20 ng/ml IL-1β 18 h; three independent experiments (Figure S4)", "method": "as §1, §3"}, "[7]": {"tested_on": "IL-6-induced adhesion of THP-1 to HMEC-1 cells", "test": "Monocyte binding assay, IL-6-induced THP-1 adhesion to HMEC-1", "assay_type": "cell-based, human", "settings": "various concentrations, 1 h pretreatment, then 20 ng/ml IL-6 18 h; three independent experiments (Figure S4)", "method": "as §1, §3"}, "TLR4": {"tested_on": "TLR4", "settings": "literature; ref [62]–[65]; cited from earlier work", "excerpt": "Multiple anti-inflammatory immunomodulatory therapies have been developed to ameliorate proinflammation following bacterial infection. […] Therefore, novel therapeutic approaches that decrease inflammatory responses should be developed, and researchers should expand the focus beyond agents that only treat the initial infe ..."}, "IL-6": {"target": "T1, IL-6 (Homo sapiens, UniProt P05231)", "T1 construct": "purchased GOLDBIO.COM, USA 1110-06", "T1 sequence (P05231 30-212)": "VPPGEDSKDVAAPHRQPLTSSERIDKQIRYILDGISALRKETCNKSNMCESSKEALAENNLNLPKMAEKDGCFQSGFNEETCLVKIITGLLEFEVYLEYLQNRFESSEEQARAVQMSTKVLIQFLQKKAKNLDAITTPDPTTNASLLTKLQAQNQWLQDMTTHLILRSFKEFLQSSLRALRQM", "test": "SPR binding to immobilized IL-6 (Biacore T200)", "settings": "CM5 chip, IL-6 immobilized (approximately 2000 RU), single cycle, 2, 10, 25, 50, 100 μM peptide, 10 μl/min, 25 °C, monovalent binding model, read-out: equilibrium dissociation KD", "method": "The recombinant proteins of TNF-α (catalog^#1130-01), IL-1β (catalog^#1110-01B), and IL-6 (catalog^#1110-06) were purchased from the GOLDBIO.COM, USA.\nThe peptide KCF18 predicted from molecular docking and MM/PBSA binding free energy calculations were synthesized to confirm whether the peptide can bind to the pro-inflammatory cytokines by using SPR measurements. A Biacore T200 workstation (GE Healthcare, USA) was used for SPR detection. These cytokines (250 μg/ml TNF-α and 400 μg/ml IL-6) were diluted into 10 mM sodium acetate buffer at pH 4.0 and immobilized onto a CM5 sensor chip using amine coupling (EDC-NHS) for 210 secs at a flow rate of 10 μl/min. Approximately 5000 and 2000 response units (RU) of cytokines TNF-α and IL-6 were immobilized on the sensor chip, respectively. The flow channel-1 also treated the EDC-NHS as a reference to reduce the non-specific binding between dextran and peptides. […] The complexes were allowed to associate for 180 secs and then to dissociate for 90 secs. Surfaces were regenerated with an injection of 2 mM MgCl2 at a flow rate of 30 µl/min for 30 secs. A monovalent binding model was used to generate and fit the equilibrium binding curves for each peptide to determine the KD of the binding of peptide KCF18 with the pro-inflammatory cytokines."}, "HMEC-1 cells": {"tested_on": "HMEC-1 cells", "test": "Cell cytotoxic assay (WST-1)", "assay_type": "cell-based, human", "settings": "WST-1, 24 and 48 hours, 0.5 μM to 5 μM peptide (Figure S5)", "method": "as §1\nTo assess whether the peptide KCF18 is toxic to the endothelial cells, 1 × 10^4 cells were placed into 96-well micro-plates and incubated for 2 hours for adherence. After adhesion, the medium with various concentrations of peptides (0.5 μM to 5 μM) were added to the wells. After 24 and 48 hours, the HMEC-1 cells were washed with Hank’s balanced salt solution and the survivals of HMEC-1 were detected by WST-1 assay kit (Roche, USA). The experiment was assessed in quadruplicate and repeated three times."}},
  "note": "No end group written: not given here.",
  "data": [
    {"molecule": "KCAKEMFAQKLPYSAVYF [mKCF18, mutant peptide of KCF18]", "values": [
      {"measurement": "TNF-α-induced TNF-α mRNA expression in HMEC-1, antibody comparison (in words)", "setting": "[1]; TNF-α blocking antibody 1 μg/ml, peptide 500 nM, three independent experiments (Figure S6B)", "value": "had no inhibitory effect on TNF-α induced TNF-α mRNA expression in both cells"},
      {"measurement": "TNF-α-induced TNF-α mRNA expression in THP-1, antibody comparison (in words)", "setting": "[2]", "value": "had no inhibitory effect on TNF-α induced TNF-α mRNA expression in both cells"},
      {"measurement": "IL-1β-induced TNF-α expression in THP-1 (in words)", "setting": "[3]", "value": "could not inhibit IL-1β induced TNF-α expression"},
      {"measurement": "WBC infiltration, comparison of mKCF18 with KCF18 (in words)", "setting": "[4]; i.v. 4 h after i.p. thioglycollate, n = 3 for each group (Figure S9)", "value": "worse than KCF18 peptide"}
    ]},
    {"molecule": "CPLNGSTVYGHLRHCLSCSGTMVKF [CF25, a random peptide with 25 amino acids, negative control]", "values": [
      {"measurement": "effect on TNF-α-induced monocyte binding to HMEC-1 (in words)", "setting": "[5]", "value": "could not repress cytokine-increased monocyte binding to HMEC-1 cells"},
      {"measurement": "effect on IL-1β-induced monocyte binding to HMEC-1 (in words)", "setting": "[6]", "value": "could not repress cytokine-increased monocyte binding to HMEC-1 cells"},
      {"measurement": "effect on IL-6-induced monocyte binding to HMEC-1 (in words)", "setting": "[7]", "value": "could not repress cytokine-increased monocyte binding to HMEC-1 cells"},
      {"measurement": "TNF-α-induced TNF-α mRNA expression in HMEC-1 (in words)", "setting": "[1]; peptide incubated with TNF-α (20 ng/ml) 1 h, cells treated 4 h, three independent experiments (Fig. 6A)", "value": "had no inhibitory effect on TNF-α-induced TNF-α mRNA expression"},
      {"measurement": "total white blood cell infiltration in the peritoneal cavity (in words)", "setting": "[4]; 5 mg/kg i.v. 4 h after i.p. 4% thioglycollate, mean ± SEM, n = 5 KCF18, n = 7 CF25, n = 6 control, *P < 0.05 vs control (Fig. 7)", "value": "had no potential anti-inflammatory effect"}
    ]},
    {"molecule": "CCOC(=O)C1=CCCC[C@H]1S(=O)(=O)Nc1ccc(F)cc1Cl", "note": "[TAK-242]", "values": [
      {"measurement": "outcome in clinical trials (TLR4 inhibitor; in words)", "setting": "TLR4", "value": "unsuccessful in clinical trials"}
    ]},
    {"molecule": "KCRKEMFKQKLPYSTVYF [KCF18]", "values": [
      {"measurement": "Kd", "setting": "IL-6", "value": 111, "unit": "µM"},
      {"measurement": "HMEC-1 cell viability vs control cells (in words)", "setting": "HMEC-1 cells", "value": "no important discrepancy was noticed in cell viability among control cells and peptide-treated cells"}
    ]}
  ]
}
